The test system of data set [1] is FGFR1-amplified squamous NSCLC. The settings on record: initial clinical results; cited from earlier work.
For data set [2], the system named is LU299 human lung cancer PDX. Kind of data set: antitumor efficacy, patient-derived LU299 lung cancer xenograft in nu/nu mice. The settings on record: 33 days. In general terms: Xenograft models place foreign cells or tissue in a host animal.
Another data set relates to LXFL1121 human NSCLC PDX. Description: antitumor efficacy, patient-derived LXFL1121 NSCLC xenograft in NMRI nu/nu mice.
Data set [3] deals with DMS-114 human SCLC xenograft. Description: antitumor efficacy, DMS-114 lung cancer xenograft in NMRI nu/nu mice. The note with it: for T/C volume: rogaratinib 50 mg/kg BID p.o., docetaxel 30 mg/kg Q7D i.v., carboplatin 80 mg/kg Q7D / paclitaxel 24 mg/kg Q7D i.p., 10 days.
Data set [4] is described as follows: body weight monitoring in tumor-bearing mice. Format: in vivo, mouse.
Another data set deals with p-ERK1/2 in RT-112 cells. Description: Western blot, ERK1/2 phosphorylation. Format: cell-based, human. The settings on record: RT-112, 0–10,000 nM. A general note: Immunoblotting shows a protein as a band on a membrane.
A further data set relates to 77 non-kinase targets. Kind of data set: PanLabs Safety screen, whole panel. The settings on record: 10 µM.
Data set [5] has as its target T1, FGFR2 (Homo sapiens, UniProt P21802). Kind of data set: KINOMEscan competition binding.
The target of data set [6] is T2, VEGFR3 (Homo sapiens, UniProt P35916). Description: KINOMEscan competition binding.
Another data set concerns 468 kinase targets. Kind of data set: KINOMEscan profiling, kinase panel. The note with it: of 403 non-mutant kinases. The data set is classed as binding.
Data set [7] addresses T2, VEGFR3. Kind of data set: kinase inhibition assay. The data set is classed as biochemical.
Data set [8] in a line: body weight monitoring in tumor-bearing rats. The data set is classed as in vivo, rat. The note with it: C51 model, nude rats, monotherapy.
The target in the next data set is TIE2 (Homo sapiens, UniProt Q02763). Kind of data set: kinase inhibition assay. The data set is classed as biochemical.
Data set [9] concerns p-FGFR2 and p-ERK1/2 in NCI-H716 tumors. Kind of data set: PK/PD, phosphorylation of FGFR2 and ERK1/2 in NCI-H716 tumor tissue. Format: in vivo, mouse.
The target of data set [10] is T3, CSF1R (Homo sapiens, UniProt P07333). Description: kinase inhibition assay. The data set is classed as biochemical.
Data set [11] can be described thus: plasma pharmacokinetics in NCI-H716 tumor-bearing NMRI nu/nu mice.
For the next data set, the system named is VEGF-A-stimulated HUVEC. Description: HUVEC growth assay, VEGF-A-stimulated. The data set is classed as cell-based, human. The settings on record: for IC50: Homo sapiens, 72 h.
The test system of data set [12] is C51 colon tumors. Description: antitumor efficacy, syngeneic C51 colon cancer model in BALB/cJ mice. The settings on record: for partial response (PR) rate (RECIST): 2/9 mice.
Data set [13] relates to p-ERK1/2 in NCI-H1581 cells. Description: Western blot, ERK1/2 phosphorylation. The data set is classed as cell-based, human. The note with it: NCI-H1581, 0–10,000 nM.
The nature of data set [14]: maximally tolerated dose in Balb/cJ mice. The data set is classed as in vivo, mouse.
For a further data set, the system named is FGF2-stimulated HUVEC. Description: HUVEC growth assay, FGF2-stimulated. The data set is classed as cell-based. The note with it: Homo sapiens, 72 h, read-out: IC50 inhibition of FGF2-stimulated growth.
In data set [15] the test system is pERK1/2 (T202/Y204,T185/Y187) in C51 cells. Description: ERK1/2 phosphorylation, MSD-ELISA. Format: cell-based. The settings on record: Mus musculus, read-out: IC50 pERK1/2 (T202/Y204,T185/Y187). For orientation: In an ELISA, binding on a coated surface is turned into a signal by an enzyme label.
Data set [16] deals with NCI-H716 human colon cancer xenograft. Kind of data set: antitumor efficacy, NCI-H716 colorectal xenograft in NMRI nu/nu mice. The settings on record: 50 mg/kg BID; 1/8 mice.
The test system of data set [17] is p-FGFR2 in NCI-H716 cells. Description: Western blot, FGFR2 auto-phosphorylation. The data set is classed as cell-based, human. The settings on record: NCI-H716, 100 nM.
Data set [18] deals with T3, CSF1R. Description: KINOMEscan competition binding. The note with it: 100 nM rogaratinib.
In data set [19] the test system is p-FGFR4 in MDA-MB-453 cells. Kind of data set: Western blot, FGFR4 auto-phosphorylation. The note with it: MDA-MB-453, 0–1,000 nM, 2 h. The data set is classed as cell-based, human.
Data set [20] relates to C51 colon tumors. Description: antitumor efficacy, C51 colon cancer model in nude rats.
Data set [21] deals with p-ERK1/2 in NCI-H716 cells. Description: Western blot, ERK1/2 phosphorylation. Format: cell-based, human. The note with it: NCI-H716, 100 nM.
In data set [22] the target is T1, FGFR2. Description: radiometric kinase activity assay. Format: biochemical.
Data set [23] concerns p-ERK1/2 in MDA-MB-453 cells. Kind of data set: Western blot, ERK1/2 phosphorylation. The data set is classed as cell-based, human. The settings on record: MDA-MB-453, 0–1,000 nM, 2 h.
Data set [24] has as its system pERK1/2 (T202/Y204,T185/Y187) in DMS-114 cells. Description: FGF2-induced ERK1/2 phosphorylation, MSD-ELISA. The data set is classed as cell-based. The note with it: Homo sapiens, DMS-114, read-out: IC50 pERK1/2 (T202/Y204,T185/Y187).
Data set [25] deals with p-ERK1/2 in UM-UC-3 cells. Kind of data set: Western blot, ERK1/2 phosphorylation. The settings on record: UM-UC-3, 0–10,000 nM. The data set is classed as cell-based, human.
Data set [26] deals with p-ERK1/2 in NCI-H520 cells. Description: Western blot, ERK1/2 phosphorylation. Format: cell-based, human. The note with it: NCI-H520, 0–10,000 nM.
The target in the next data set is VEGFR1 (Homo sapiens, UniProt P17948). Description: KINOMEscan competition binding.
Data set [27] concerns pERK1/2 (T202/Y204,T185/Y187) in MFM-223 cells. Kind of data set: FGF2-induced ERK1/2 phosphorylation, MSD-ELISA. Format: cell-based. The settings on record: Homo sapiens, MFM-223, read-out: IC50 pERK1/2 (T202/Y204,T185/Y187).

Read-outs that look alike come from different tables or passages of the source.

T3 sequence (P07333 20-972): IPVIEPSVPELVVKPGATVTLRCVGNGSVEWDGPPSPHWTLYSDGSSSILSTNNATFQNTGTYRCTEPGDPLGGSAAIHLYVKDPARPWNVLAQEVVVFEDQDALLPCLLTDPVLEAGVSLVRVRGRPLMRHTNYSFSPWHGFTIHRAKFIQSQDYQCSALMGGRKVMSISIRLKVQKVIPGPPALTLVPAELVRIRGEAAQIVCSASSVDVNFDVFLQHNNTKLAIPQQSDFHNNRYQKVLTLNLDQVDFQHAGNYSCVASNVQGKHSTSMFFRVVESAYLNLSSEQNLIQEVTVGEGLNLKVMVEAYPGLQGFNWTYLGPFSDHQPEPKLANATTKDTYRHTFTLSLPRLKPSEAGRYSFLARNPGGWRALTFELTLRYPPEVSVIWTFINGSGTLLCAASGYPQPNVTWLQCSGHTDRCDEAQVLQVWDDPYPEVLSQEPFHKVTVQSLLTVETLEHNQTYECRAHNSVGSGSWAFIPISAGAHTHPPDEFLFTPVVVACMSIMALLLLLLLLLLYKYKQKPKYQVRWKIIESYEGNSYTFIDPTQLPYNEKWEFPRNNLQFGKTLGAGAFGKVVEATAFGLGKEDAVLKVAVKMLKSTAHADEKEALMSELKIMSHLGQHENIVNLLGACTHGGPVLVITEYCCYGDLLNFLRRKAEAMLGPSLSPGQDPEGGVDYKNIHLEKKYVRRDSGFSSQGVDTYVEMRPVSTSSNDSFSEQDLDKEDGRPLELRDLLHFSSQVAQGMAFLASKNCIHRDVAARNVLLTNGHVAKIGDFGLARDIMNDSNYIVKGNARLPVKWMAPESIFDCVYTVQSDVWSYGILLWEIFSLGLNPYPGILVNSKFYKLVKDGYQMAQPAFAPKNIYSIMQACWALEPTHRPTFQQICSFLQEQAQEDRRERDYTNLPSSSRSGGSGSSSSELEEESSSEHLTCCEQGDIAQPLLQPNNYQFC
T1 sequence (P21802 481-770 limits assumed): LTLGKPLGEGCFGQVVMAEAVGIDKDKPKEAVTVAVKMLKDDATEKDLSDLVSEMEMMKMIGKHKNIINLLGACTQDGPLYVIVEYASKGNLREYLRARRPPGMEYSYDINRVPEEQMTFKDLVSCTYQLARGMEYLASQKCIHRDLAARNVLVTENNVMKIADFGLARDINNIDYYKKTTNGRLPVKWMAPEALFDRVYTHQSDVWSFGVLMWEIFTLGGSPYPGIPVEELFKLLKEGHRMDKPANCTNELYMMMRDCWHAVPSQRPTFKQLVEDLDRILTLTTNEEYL
T2 sequence (P35916 25-1363): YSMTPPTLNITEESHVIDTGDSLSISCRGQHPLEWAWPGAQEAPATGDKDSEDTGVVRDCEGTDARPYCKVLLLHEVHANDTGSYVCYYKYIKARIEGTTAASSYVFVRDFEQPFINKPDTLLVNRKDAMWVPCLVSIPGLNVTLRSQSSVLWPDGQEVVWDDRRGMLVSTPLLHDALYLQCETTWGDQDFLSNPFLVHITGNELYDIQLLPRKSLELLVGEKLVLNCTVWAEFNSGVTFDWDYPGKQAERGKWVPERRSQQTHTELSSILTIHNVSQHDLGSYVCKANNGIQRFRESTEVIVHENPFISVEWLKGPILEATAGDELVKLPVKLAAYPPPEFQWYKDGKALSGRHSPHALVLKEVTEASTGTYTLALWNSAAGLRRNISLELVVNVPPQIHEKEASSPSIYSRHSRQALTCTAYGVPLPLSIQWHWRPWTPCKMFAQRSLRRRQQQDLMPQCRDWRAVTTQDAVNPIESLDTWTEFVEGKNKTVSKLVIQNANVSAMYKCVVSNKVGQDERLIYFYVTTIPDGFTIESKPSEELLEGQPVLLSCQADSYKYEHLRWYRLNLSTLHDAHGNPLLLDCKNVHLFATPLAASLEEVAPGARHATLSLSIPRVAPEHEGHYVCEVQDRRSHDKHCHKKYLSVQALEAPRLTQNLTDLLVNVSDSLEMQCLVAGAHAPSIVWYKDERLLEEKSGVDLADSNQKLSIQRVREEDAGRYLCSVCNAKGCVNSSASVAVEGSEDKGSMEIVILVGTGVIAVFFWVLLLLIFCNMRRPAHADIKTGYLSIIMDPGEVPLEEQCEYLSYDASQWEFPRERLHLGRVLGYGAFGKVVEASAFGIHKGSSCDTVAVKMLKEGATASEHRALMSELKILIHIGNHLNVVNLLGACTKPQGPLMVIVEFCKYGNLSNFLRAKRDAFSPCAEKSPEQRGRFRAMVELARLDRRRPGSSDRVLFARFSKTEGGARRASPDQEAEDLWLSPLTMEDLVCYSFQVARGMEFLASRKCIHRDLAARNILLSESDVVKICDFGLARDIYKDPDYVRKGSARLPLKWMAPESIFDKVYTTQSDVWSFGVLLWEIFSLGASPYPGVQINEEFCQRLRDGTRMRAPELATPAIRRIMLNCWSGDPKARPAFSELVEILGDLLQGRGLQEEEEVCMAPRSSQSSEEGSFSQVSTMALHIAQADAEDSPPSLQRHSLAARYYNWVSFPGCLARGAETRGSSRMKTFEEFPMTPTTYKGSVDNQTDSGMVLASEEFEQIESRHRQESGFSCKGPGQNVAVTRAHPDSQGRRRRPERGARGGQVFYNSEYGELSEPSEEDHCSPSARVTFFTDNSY
VEGFR1, sequence (P17948 27-1338): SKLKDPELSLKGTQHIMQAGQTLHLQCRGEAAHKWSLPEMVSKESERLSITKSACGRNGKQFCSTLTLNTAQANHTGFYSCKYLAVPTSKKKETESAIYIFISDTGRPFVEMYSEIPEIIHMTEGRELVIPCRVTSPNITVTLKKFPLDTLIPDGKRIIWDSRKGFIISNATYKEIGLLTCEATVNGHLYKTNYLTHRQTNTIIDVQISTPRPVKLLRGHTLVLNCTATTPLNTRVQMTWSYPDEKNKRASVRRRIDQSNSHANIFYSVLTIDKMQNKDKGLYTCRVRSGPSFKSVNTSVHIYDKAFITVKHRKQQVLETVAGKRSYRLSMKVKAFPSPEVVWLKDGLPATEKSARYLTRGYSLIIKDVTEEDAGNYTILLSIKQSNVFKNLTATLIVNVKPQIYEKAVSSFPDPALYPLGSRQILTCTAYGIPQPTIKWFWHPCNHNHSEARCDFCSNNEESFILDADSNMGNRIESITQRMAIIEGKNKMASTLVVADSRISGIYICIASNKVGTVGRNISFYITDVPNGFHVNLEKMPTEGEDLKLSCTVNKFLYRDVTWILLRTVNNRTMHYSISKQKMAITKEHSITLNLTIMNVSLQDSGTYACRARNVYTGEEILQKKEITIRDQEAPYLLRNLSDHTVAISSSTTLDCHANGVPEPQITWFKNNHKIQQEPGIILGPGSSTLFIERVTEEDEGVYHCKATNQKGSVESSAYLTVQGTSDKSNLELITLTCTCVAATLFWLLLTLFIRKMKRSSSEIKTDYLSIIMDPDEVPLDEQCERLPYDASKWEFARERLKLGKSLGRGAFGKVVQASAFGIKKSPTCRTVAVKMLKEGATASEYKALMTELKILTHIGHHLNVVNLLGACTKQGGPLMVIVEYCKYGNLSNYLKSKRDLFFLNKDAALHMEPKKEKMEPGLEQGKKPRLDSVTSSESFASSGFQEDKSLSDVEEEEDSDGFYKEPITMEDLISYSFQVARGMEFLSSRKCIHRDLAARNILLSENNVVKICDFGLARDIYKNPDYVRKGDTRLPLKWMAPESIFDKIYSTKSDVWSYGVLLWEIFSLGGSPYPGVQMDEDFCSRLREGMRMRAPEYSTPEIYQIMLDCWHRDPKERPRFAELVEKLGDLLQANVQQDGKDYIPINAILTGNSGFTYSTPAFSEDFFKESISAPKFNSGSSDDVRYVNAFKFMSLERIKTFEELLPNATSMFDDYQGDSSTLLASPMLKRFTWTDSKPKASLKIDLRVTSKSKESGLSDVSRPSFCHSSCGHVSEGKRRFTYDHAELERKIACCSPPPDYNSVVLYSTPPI
TIE2, sequence (Q02763 23-1124): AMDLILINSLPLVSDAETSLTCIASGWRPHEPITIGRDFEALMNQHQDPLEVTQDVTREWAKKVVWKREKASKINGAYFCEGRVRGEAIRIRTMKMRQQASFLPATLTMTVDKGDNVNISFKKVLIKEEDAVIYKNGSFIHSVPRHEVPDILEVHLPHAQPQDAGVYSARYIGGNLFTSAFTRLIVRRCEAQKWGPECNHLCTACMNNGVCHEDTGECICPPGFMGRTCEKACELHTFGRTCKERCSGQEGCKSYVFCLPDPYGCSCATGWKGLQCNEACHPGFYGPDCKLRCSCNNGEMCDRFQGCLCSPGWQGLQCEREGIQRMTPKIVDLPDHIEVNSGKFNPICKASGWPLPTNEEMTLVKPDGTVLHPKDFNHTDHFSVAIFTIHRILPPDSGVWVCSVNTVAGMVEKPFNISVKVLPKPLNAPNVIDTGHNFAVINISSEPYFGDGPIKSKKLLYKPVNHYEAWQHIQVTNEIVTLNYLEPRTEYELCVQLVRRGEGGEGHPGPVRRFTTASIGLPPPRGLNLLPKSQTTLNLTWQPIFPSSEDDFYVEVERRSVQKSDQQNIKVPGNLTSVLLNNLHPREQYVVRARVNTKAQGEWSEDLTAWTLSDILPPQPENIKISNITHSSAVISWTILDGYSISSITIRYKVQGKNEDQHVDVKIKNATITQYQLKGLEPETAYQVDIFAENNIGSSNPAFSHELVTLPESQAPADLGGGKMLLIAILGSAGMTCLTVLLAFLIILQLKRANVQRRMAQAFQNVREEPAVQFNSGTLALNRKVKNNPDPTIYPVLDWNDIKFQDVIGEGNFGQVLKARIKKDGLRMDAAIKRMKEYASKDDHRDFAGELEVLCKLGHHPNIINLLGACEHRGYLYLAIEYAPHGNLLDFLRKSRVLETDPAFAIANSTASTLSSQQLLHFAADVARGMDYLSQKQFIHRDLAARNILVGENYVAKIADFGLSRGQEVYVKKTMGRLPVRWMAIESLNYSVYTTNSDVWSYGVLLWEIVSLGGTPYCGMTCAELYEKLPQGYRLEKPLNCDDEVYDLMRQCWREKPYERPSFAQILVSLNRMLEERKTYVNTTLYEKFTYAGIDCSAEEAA

Take `CCN1CCN(c2ccc(Nc3cc(N(C)C(=O)Nc4c(Cl)c(OC)cc(OC)c4Cl)ncn3)cc2)CC1` [BGJ398, 3‐(2,6‐dichloro‐3,5‐dimethoxy‐phenyl)‐1‐{6‐[4‐(4‐ethyl‐piperazin‐1‐yl)‐phenylamino]‐pyrimidin‐4‐yl}‐1‐methyl‐urea]: the response rate in data set [1] was 11%.
As for `CC(=O)O[C@@]12CO[C@@H]1C[C@H](O)[C@@]1(C)C(=O)[C@H](O)C3=C(C)[C@@H](OC(=O)[C@H](O)[C@@H](NC(=O)OC(C)(C)C)c4ccccc4)C[C@@](O)([C@@H](OC(=O)c4ccccc4)[C@H]21)C3(C)C` [docetaxel, reference compound], in [2] (rogaratinib 50 mg/kg BID, docetaxel Q7D i.v., n=10), the “PRs (RECIST)” value is 60%. For the same compound, the tumor response post-treatment result in the data set with LXFL1121 human NSCLC PDX (drug-free observation period after treatment) is “tumor regrowth was observed”. This compound also had a T/C volume in data set [3] of 0.27. In data set [3] (rogaratinib 50 mg/kg BID, docetaxel 30 mg/kg Q7D, carboplatin 80 mg/kg Q7D / paclitaxel 24 mg/kg Q7D), this compound displayed a PR rate of 40%. In addition, in data set [4] (DMS-114 model), the “maximum body weight loss” value is given as 2.4%. The “maximum body weight losses” value in data set [4] (LU299 model) turned out to be 14.1%.
One may read the Kd as a measure of binding affinity in units of concentration. Read a low Kd as higher affinity. `COCc1c(-c2cc3cc(C)cc(OC)c3s2)c2c(N)ncnn2c1CN1CCNC(=O)C1` [rogaratinib, 4‐{[4‐amino‐6‐(methoxymethyl)‐5‐(7‐methoxy‐5‐methyl‐1‐benzothiophen‐2‐yl)pyrrolo[2,1‐f][1,2,4]triazin‐7‐yl]methyl}piperazin‐2‐one]: the “inhibition of ERK1/2 phosphorylation” value in the data set with p-ERK1/2 in RT-112 cells was “potent inhibition”; in data set [13], “potent inhibition”; in [25] it was “less sensitive”; in data set [26], “less sensitive”. Also, the “number of significant hits in a set of 77 non-kinase targets” value in the data set with 77 non-kinase targets turned out to be 3. The Kd at FGFR2 [5] amounted to 0.005 µM; on VEGFR3 [6], 0.15 µM; on VEGFR1 it was 0.19 µM. Also, the T/C volume in data set [2] (50 mg/kg BID p.o.) turned out to be 0.33; in the data set on LXFL1121 human NSCLC PDX (50 mg/kg BID p.o., 22 days), 0.26; in data set [3], 0.34. The “number of additional kinases besides FGFR1-4 with competition binding >65%” value with 468 kinase targets (100 nM rogaratinib) is 4; in the data set on 468 kinase targets (1 μM rogaratinib), 18. For the same compound, the IC50 against VEGFR3 [7] is 0.13 µM; against TIE2 it was 1.3 µM; at CSF1R [10], 0.166 µM; in the data set on VEGF-A-stimulated HUVEC (read-out: −logIC50 inhibition of VEGF-A-stimulated growth (converted)), 0.501 µM; in the data set with VEGF-A-stimulated HUVEC (HUVEC, read-out: IC50 inhibition of VEGF-A-stimulated growth) it was 0.453 µM; with FGF2-stimulated HUVEC it was 0.016 µM. Besides, the IC50 is 0.28 µM in data set [15], under 0.001 µM against FGFR2 [22], 0.02 µM in [24] and 0.011 µM in data set [27]. In addition, the body weight losses in data set [8] was at most 10%; in [4] (C51 model, mice, monotherapy), at most 10%; in [4] (LU299 PDX model), at most 10%; in data set [4] (LXFL1121 PDX model), at most 10%. Also, the “FGFR2 and ERK1/2 phosphorylation levels in tumor” value in data set [9] (24-h time point after single dose 35, 50 or 65 mg/kg) was “returned to levels similar to the vehicle control”; in data set [9] (for at least five hours after single dose 35, 50 or 65 mg/kg), “strong inhibition of FGFR signaling”. Further, the “unbound Cmax concentration in plasma” value in data set [11] (single dose 35 mg/kg after 10-day drug-free period) is 123 nM; in [11] (single dose 50 mg/kg after 10-day drug-free period), 294 nM; in data set [11] (single dose 65 mg/kg after 10-day drug-free period) it was 357 nM. Moreover, the “IC50 VEGF-A-stimulated growth higher than FGF2-stimulated growth” value in the data set with VEGF-A-stimulated HUVEC (HUVEC) was 28 fold. The antitumor efficacy result in the data set with C51 colon tumors [12] (25 mg/kg QD p.o., 13 days) was “not efficacious”. The “partial response (PR) rate (RECIST)” value with C51 colon tumors [12] (50 mg/kg QD) and in the data set on C51 colon tumors [12] (75 mg/kg QD) was 22% each time. For the same compound, in the data set on C51 colon tumors [12] (75 mg/kg QD, 1/9 mice), the “stable disease (SD) rate (RECIST)” value was 11%. For the same compound, the maximally tolerated dose in data set [14] (BID) came out at 50 mg/kg; in data set [14] (QD), 75 mg/kg. Besides, in [16], the “partial responses (PR)” value amounted to 12.5%. Besides, in data set [17], the “auto-phosphorylation of FGFR2” value is “effectively inhibited”. Moreover, the “inhibition of binding to CSF1R in KINOMEscan profiling” value at CSF1R [18] is “strong inhibition”. Also, the “auto-phosphorylation of FGFR4” value in data set [19] was “inhibited auto‐phosphorylation of FGFR4”. The “complete responses (CR) (RECIST)” value in the data set with C51 colon tumors [20] (10 mg/kg QD, 2/8) worked out at 25%; with C51 colon tumors [20] (50 mg/kg QD, 3/8), 37.5%. Besides, the “stable disease (SD) (RECIST)” value in the data set with C51 colon tumors [20] (50 mg/kg QD, 1/8) is 12.5%. Further, the “phosphorylation of ERK1/2” value in data set [21] is “effectively inhibited”. Also, in data set [23], the ERK1/2 phosphorylation result is “preventing ERK1/2 phosphorylation in the same concentration range”. Further, the “maximum body weight loss” value in [4] (DMS-114 model) was determined as 5%; in [4] (NCI-H716 model), 5.2%. On VEGFR1 (VEGFR1, VEGFR3 vs FGFR1 Kd), the “binding affinity to VEGFRs lower compared to FGFR1” value was “about 100 fold”.

The values above are taken from paper PMC6766871 (International Journal of Cancer, 2019).
